Our source for the IC50 values is BindingDB's records for doi:10.1021/cc100073a (Amgen, 2010).

Holding throughout (experiment): PHD Enzymatic Assay
The target in one assay is Egl nine homolog 1 (Homo sapiens, UniProt Q9GZT9). How it is done:
(§1) PHD1,2,3 activity was measured utilizing homogeneous time-resolved fluroescence energy transfer techology by detecting the trans-4-hydroxylatio of HIF-1alpha residue pro564 in biotin-hHIR-1alpha(558-574)(Biotin-DLEMLAPYIPMDDDFQL)peptide substrate resulting in a recognition by the Europium-tagged Von Hippel Lindau, Elongin B and Dlongin C heterotrimeric complex (VCB-Eu complex)

In the next assay the target is Prolyl hydroxylase EGLN2 (Homo sapiens, UniProt Q96KS0). Here is the method:
as §1

In the next assay the target is Prolyl hydroxylase EGLN3 (Homo sapiens, UniProt Q9H6Z9). How it is done:
as §1

Structures are written as SMILES. “And” between values parts separate entries of the source, which are not always exact repeats. Equal entries are not always repeated.

Sequence of Prolyl hydroxylase EGLN3 (Q9H6Z9 whole entry): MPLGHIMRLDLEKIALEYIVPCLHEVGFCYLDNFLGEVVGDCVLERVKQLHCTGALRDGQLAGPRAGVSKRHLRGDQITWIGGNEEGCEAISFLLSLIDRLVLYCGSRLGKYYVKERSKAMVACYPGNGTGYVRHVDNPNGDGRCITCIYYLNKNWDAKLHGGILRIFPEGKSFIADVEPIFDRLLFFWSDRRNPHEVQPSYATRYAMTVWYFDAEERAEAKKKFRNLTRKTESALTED
Sequence of Egl nine homolog 1 (Q9GZT9 whole entry): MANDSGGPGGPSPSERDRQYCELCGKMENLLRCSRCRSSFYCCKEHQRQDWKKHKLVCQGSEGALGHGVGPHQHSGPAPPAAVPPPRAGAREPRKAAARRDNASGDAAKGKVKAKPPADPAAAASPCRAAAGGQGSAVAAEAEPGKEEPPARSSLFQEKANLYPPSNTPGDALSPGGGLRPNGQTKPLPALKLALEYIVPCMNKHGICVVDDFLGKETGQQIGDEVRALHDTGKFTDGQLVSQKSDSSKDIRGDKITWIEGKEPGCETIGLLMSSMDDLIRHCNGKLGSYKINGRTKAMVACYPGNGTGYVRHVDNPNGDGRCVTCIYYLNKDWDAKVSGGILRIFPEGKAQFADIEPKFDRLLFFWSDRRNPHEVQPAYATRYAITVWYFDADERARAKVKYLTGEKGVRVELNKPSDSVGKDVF
Sequence of Prolyl hydroxylase EGLN2 (Q96KS0 whole entry): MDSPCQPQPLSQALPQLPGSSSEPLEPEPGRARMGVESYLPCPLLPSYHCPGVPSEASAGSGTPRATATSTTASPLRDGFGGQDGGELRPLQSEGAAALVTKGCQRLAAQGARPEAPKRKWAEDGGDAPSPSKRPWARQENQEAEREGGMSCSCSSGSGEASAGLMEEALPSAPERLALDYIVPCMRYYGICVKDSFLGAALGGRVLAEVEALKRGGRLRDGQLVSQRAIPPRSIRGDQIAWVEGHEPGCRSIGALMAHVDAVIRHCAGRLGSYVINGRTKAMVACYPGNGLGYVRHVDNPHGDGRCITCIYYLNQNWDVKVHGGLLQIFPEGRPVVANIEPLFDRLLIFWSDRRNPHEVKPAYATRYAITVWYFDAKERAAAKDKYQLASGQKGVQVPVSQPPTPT

The molecule `CC(=O)N[C@@H](CO)C(=O)NCc1ccc2c(c1)c(O)c(C(=O)NCC(=O)O)c(=O)n2C` [PHD Inhibitor, 8{5}] returned a half-maximal inhibitory concentration (IC50) against Egl nine homolog 1 of 265 nM.

Turning to `Cn1c(=O)c(C(=O)NCC(=O)O)c(O)c2cc(CNC(=O)[C@@H](Cc3ccccc3)NC(=O)C[C@H](Cc3ccccc3)NC(=O)c3ccccc3)ccc21` [PHD Inhibitor, 12{2,3,1}], the values for the IC50 at Prolyl hydroxylase EGLN2, at Prolyl hydroxylase EGLN3 and against Egl nine homolog 1 were 49 nM, 40 nM and 1560 nM, respectively.

For the molecule `CC(=O)NCc1ccc2c(c1)c(O)c(C(=O)NCC(=O)O)c(=O)n2C` [PHD Inhibitor, 5], the IC50 against Egl nine homolog 1 amounted to 546 nM.

`CC(=O)N[C@H](Cc1ccccc1)C(=O)NCc1ccc2c(c1)c(O)c(C(=O)NCC(=O)O)c(=O)n2C` [PHD Inhibitor, 8{2}] came in with an IC50 against Egl nine homolog 1 of 112 nM. This IC50 lies about 4.9-fold lower than the previous one.

`CC(=O)N[C@@H](CC(=O)O)C(=O)NCc1ccc2c(c1)c(O)c(C(=O)NCC(=O)O)c(=O)n2C` [PHD Inhibitor, 8{6}] displayed an IC50 on Egl nine homolog 1 of 138 nM.

Turning to `Cn1c(=O)c(C(=O)NCC(=O)O)c(O)c2cc(CNC(=O)[C@@H](Cc3ccccc3)NC(=O)[C@@H](Cc3ccccc3)NC(=O)c3ccccc3)ccc21` [PHD Inhibitor, 12{2,4,1}], the IC50 is 22 nM and 8.5 nM at Prolyl hydroxylase EGLN2; 20 nM and 5.3 nM at Prolyl hydroxylase EGLN3.

`CC(=O)NCC(=O)NCc1ccc2c(c1)c(O)c(C(=O)NCC(=O)O)c(=O)n2C` [PHD Inhibitor, 8{4}] gave an IC50 against Egl nine homolog 1 of 293 nM.

`CC(=O)N[C@@H](Cc1ccc2ccccc2c1)C(=O)NCC(=O)NCc1ccc2c(c1)c(O)c(C(=O)NCC(=O)O)c(=O)n2C` [PHD Inhibitor, 12{4,1,2}]: the half-inhibitory concentration (IC50) came to 5.1 nM at Prolyl hydroxylase EGLN2, 13.5 nM at Prolyl hydroxylase EGLN3 and 41.9 nM against Egl nine homolog 1.

Consider `CC(=O)N[C@@H](Cc1ccccc1)C(=O)NCc1ccc2c(c1)c(O)c(C(=O)NCC(=O)O)c(=O)n2C` [PHD Inhibitor, 8{1}], for which inhibition against Egl nine homolog 1 was half-maximal at 482 nM (IC50).

In turn, `CC(=O)N[C@@H](CCCCN)C(=O)NCc1ccc2c(c1)c(O)c(C(=O)NCC(=O)O)c(=O)n2C` [PHD Inhibitor, 8{7}] yielded an IC50 against Egl nine homolog 1 of 409 nM.

For the molecule `Cn1c(=O)c(C(=O)NCC(=O)O)c(O)c2cc(CNC(=O)[C@@H](Cc3ccccc3)NC(=O)[C@@H](Cc3ccc4ccccc4c3)NC(=O)C(C)(C)C)ccc21` [PHD Inhibitor, 12{2,1,4}], the results for the half-maximal inhibitory concentration (IC50) at Prolyl hydroxylase EGLN2, at Prolyl hydroxylase EGLN3 and against Egl nine homolog 1 were 60.8 nM, 18.8 nM and 308 nM, respectively.

With `CC(C)C[C@H](NC(=O)[C@H](Cc1cccc2ccccc12)NC(=O)C(C)(C)C)C(=O)NCc1ccc2c(c1)c(O)c(C(=O)NCC(=O)O)c(=O)n2C` [PHD Inhibitor, 12{3,1,4}], the IC50 was determined as 32 nM against Prolyl hydroxylase EGLN2, 77 nM on Prolyl hydroxylase EGLN3 and 1100 nM at Egl nine homolog 1.

Consider `CC(=O)N[C@H](Cc1ccccc1)C(=O)N[C@H](Cc1ccccc1)C(=O)NCc1ccc2c(c1)c(O)c(C(=O)NCC(=O)O)c(=O)n2C` [PHD Inhibitor, 12{2,3,2}], for which the IC50 on Prolyl hydroxylase EGLN2 is 7.2 nM and 12.2 nM; against Prolyl hydroxylase EGLN3, 11.7 nM and 13.5 nM; against Egl nine homolog 1, 37.4 nM and 90.2 nM.

As for `Cn1c(=O)c(C(=O)NCC(=O)O)c(O)c2cc(CNC(=O)[C@H](Cc3ccccc3)NC(=O)[C@H](Cc3ccccc3)NC(=O)CCN3CCOCC3)ccc21` [PHD Inhibitor, 12{1,5,3}], the IC50 amounted to 95 nM at Prolyl hydroxylase EGLN2, 165 nM against Prolyl hydroxylase EGLN3 and 2920 nM against Egl nine homolog 1.

Regarding `CC(=O)N[C@H](Cc1ccc2ccccc2c1)C(=O)N[C@H](Cc1ccccc1)C(=O)NCc1ccc2c(c1)c(O)c(C(=O)NCC(=O)O)c(=O)n2C` [PHD Inhibitor, 12{2,1,2}], the IC50 on Prolyl hydroxylase EGLN2 worked out at 13.5 nM; against Prolyl hydroxylase EGLN3, 6.4 nM; against Egl nine homolog 1, 93.8 nM.

For the molecule `Cn1c(=O)c(C(=O)NCC(=O)O)c(O)c2cc(CNC(=O)[C@@H](Cc3ccccc3)NC(=O)[C@@H](Cc3ccccc3)NC(=O)C(C)(C)C)ccc21` [PHD Inhibitor, 12{2,3,4}], the IC50 was 12.9 nM and 14.6 nM at Prolyl hydroxylase EGLN2; 12.6 nM and 13.2 nM on Prolyl hydroxylase EGLN3; 86.4 nM and 104 nM at Egl nine homolog 1.

Regarding `CC(=O)N[C@@H](Cc1ccccc1)C(=O)N[C@H](Cc1ccccc1)C(=O)NCc1ccc2c(c1)c(O)c(C(=O)NCC(=O)O)c(=O)n2C` [PHD Inhibitor, 12{2,5,2}], the IC50 is 7.6 nM against Prolyl hydroxylase EGLN2, 8.9 nM at Prolyl hydroxylase EGLN3 and 44.8 nM at Egl nine homolog 1.

Turning to `CC(=O)N[C@@H](CC(C)C)C(=O)N[C@H](Cc1ccccc1)C(=O)NCc1ccc2c(c1)c(O)c(C(=O)NCC(=O)O)c(=O)n2C` [PHD Inhibitor, 12{2,6,2}], the IC50 came out at 11 nM on Prolyl hydroxylase EGLN2, 16.2 nM at Prolyl hydroxylase EGLN3 and 67.5 nM against Egl nine homolog 1.

As to `CC(=O)N[C@@H](Cc1ccc2ccccc2c1)C(=O)N[C@@H](Cc1ccccc1)C(=O)NCc1ccc2c(c1)c(O)c(C(=O)NCC(=O)O)c(=O)n2C` [PHD Inhibitor, 12{1,1,2}], the IC50 worked out at 4.3 nM at Prolyl hydroxylase EGLN2, 4.5 nM at Prolyl hydroxylase EGLN3 and 35 nM on Egl nine homolog 1.

`CC(=O)N[C@H](CC(C)C)C(=O)NCc1ccc2c(c1)c(O)c(C(=O)NCC(=O)O)c(=O)n2C` [PHD Inhibitor, 8{3}]: the IC50 on Egl nine homolog 1 came to 521 nM.

For the molecule `CC(C)C[C@@H](NC(=O)C(C)(C)C)C(=O)N[C@H](Cc1ccccc1)C(=O)NCc1ccc2c(c1)c(O)c(C(=O)NCC(=O)O)c(=O)n2C` [PHD Inhibitor, 12{2,6,4}], the results for the concentration for half-maximal inhibition (IC50) at Prolyl hydroxylase EGLN2, at Prolyl hydroxylase EGLN3 and against Egl nine homolog 1 were 14.5 nM, 16.8 nM and 113 nM, respectively.
